Results on 15 compounds are retold here after patent US20220098215A1, “DUOCARMYCIN ANALOGUES” (AUCKLAND UNISERVICES LIMITED, priority 2019, published 2022).

Entries after “also recorded” stand apart in the source; their conditions may differ. Like-named read-outs stand apart in the source and are kept apart here. Bounds are passed on as bounds.

The subject of one data set is cervical carcinoma SiHa. The data set can be described thus: Cytotoxicity: inhibition of proliferation, sulforhodamine B staining. It is filed as cell-based, human. As to conditions: for IC50: Homo sapiens. Here is the method:
(§1) The cytotoxicity of the payloads of the invention was determined by measuring the inhibition of proliferation of two human tumour cell lines, the cervical carcinoma SiHa, and the ovarian carcinoma SKOV3. Log-phase monolayers were exposed continuously to the payloads for 5 days in 96-well plates, followed by sulforhodamine B staining. The IC50 was determined by interpolation as the drug concentration required to inhibit cell density to 50% of that of the untreated controls on the same plate. Every plate contained the reference compound seco-CBI-TMI as an internal control.
(§2) The cytotoxicity of the payloads of the invention was determined by measuring the inhibition of proliferation of two human tumour cell lines, the cervical carcinoma SiHa, and the ovarian carcinoma SKOV3, following the general procedure described in Example 7. In the new determinations the stock solution of payload in DMSO was diluted in series prior to addition to the cell-containing wells of the 96-well plate. The cytotoxicity determinations were repeated several times (n=3-7 depending on compound and cell line) and the results are collected in Table 4.
For orientation: The SRB assay estimates cell density from bound dye.

A further data set deals with ovarian carcinoma SKOV3. The data set is described as above. It counts as cell-based, human. The following applies: for IC50: Homo sapiens; for differential cytotoxic potency between enantiomers 82 and 83: SKOV3. Here is the method:
as §1, §2

Data set [1] can be described thus: Calculated lipophilicity, ChemDraw Professional. The following applies: Table 3; difference CBI minus MBO, same side chain. Here is the method:
The lipophilicity was calculated for the representative compounds of the invention using the ChemDraw Professional v.17.0.0 software package (Perkin Elmer Informatics Inc).
(§3) Lipophilicity of small molecule compounds can be calculated in many different ways (reviewed for example in J. Pharm. Sci. (2009) 98, 861). To complement the data provided in Example 6 the calculated lipophilicity of several compounds of the present invention was compared to that of the seco-CBI analogues bearing the same minor groove binding side chain, using four different software packages, i.e. ChemDraw Professional (Perkin Elmer Informatics Inc) as in Example 6, ACD/log P (Advanced Chemistry Development), XLOGP3 (Shanghai Institute of Organic Chemistry), and MLOGP (Talete SRL, Milano, Italy), with the last three accessed via SwissADME (http://swissadme.ch/, Swiss Institute of Bioinformatics). The structures of the compounds are shown (where DNA binding units A, D, E and F, when attached to the 2-methylbenzoxazole alkylating subunit, represent compounds 23, 59, 66 and 74, respectively) and the calculated log P values are collected in Table 3.

A short description of data set [2]: Calculated lipophilicity, ACD/log P. As to conditions: Table 3; difference CBI minus MBO, same side chain.
Text: as §3

A short description of data set [3]: Aqueous stability in neutral buffer (LC-MS / HPLC). It counts as physicochemical. As to conditions: 4 μM in Tris buffer (pH 7.4) containing 10% DMF at 37° C., monitored over 300-500 min. As to the method: The aqueous stability of 23 and reference compound seco-CBI-TMI was investigated by LC-MS analysis. Samples containing the payloads at a concentration of 4 μM in Tris buffer (pH 7.4) containing 10% DMF at 37° C. were monitored at regular intervals over 300-500 min.
The aqueous stability of compounds 52, 59 and 66 was investigated by HPLC analysis. The conditions were the same as those described in Example 8, i.e. samples contained the payloads at a concentration of 4 μM in Tris buffer (pH 7.4) containing 10% DMF at 37° C. In this experiment the solutions were monitored at hourly intervals over 8 h.

For data set [4] the following is noted: Bioorg. Med. Chem. Lett. (2010) 20, 1854; cited from earlier work.
The mark [5] stands for this setting: SK-OV-3, 120 h, Example 7, Table 2, continuous exposure 5 days, 96-well plates, read-out: IC50 SKOV3.
The mark [6] stands for this setting: SK-OV-3, Example 25, Table 4, DMSO stock diluted in series before addition, n=3-7, read-out: IC50 SKOV3 Average.

On to `Cc1nc2c3c(cc(O)c2o1)N(C(=O)c1cc2cc(NC(=O)c4cc5cc(OCCN(C)C)ccc5[nH]4)ccc2[nH]1)CC3CCl` (stereo not shown) [Compound 53, N-(2-(8-(Chloromethyl)-4-hydroxy-2-methyl-7,8-dihydro-6H-oxazolo[4,5-e]indole-6-carbonyl)-1H-indol-5-yl)-5-(2-(dimethylamino)ethoxy)-1H-indole-2-carboxamide], for which the IC50 in the data set on cervical carcinoma SiHa (120 h, read-out: IC50 SiHa) stood at 7.2 nM; in the data set with cervical carcinoma SiHa (read-out: IC50 SiHa Average) it was 2.9 nM; with ovarian carcinoma SKOV3 (setting [5]), 9 nM; in the data set with ovarian carcinoma SKOV3 (setting [6]), 4.2 nM.

`COc1ccc2sc(C(=O)N3CC(CCl)c4c3cc(O)c3oc(C)nc43)cc2c1` (stereo not shown) [Compound 65, (8-(Chloromethyl)-4-hydroxy-2-methyl-7,8-dihydro-6H-oxazolo[4,5-e]indol-6-yl)(5-methoxybenzo[b]thiophen-2-yl)methanone]: the IC50 worked out at 2.7 nM with cervical carcinoma SiHa (read-out: IC50 SiHa Average) and 1.7 nM with ovarian carcinoma SKOV3 (setting [6]).

Turning to `COc1cc2cc(C(=O)N3CC(CCl)c4c3cc(O)c3oc(C)nc43)[nH]c2c(OC)c1OC` (stereo not shown) [Compound 23, (8-(Chloromethyl)-4-hydroxy-2-methyl-7,8-dihydro-6H-oxazolo[4,5-e]indol-6-yl)(5,6,7-trimethoxy-1H-indol-2-yl)methanone], the “LogP ChemDraw Δ” value in data set [1] is recorded as 1.48. Moreover, in data set [2], the “LogP ACD Δ” value was 1.67. The IC50 was determined as 0.28 nM in the data set with cervical carcinoma SiHa (120 h, read-out: IC50 SiHa); 0.18 nM with cervical carcinoma SiHa (read-out: IC50 SiHa Average); 0.54 nM in the data set on ovarian carcinoma SKOV3 (setting [5]); 0.32 nM in the data set with ovarian carcinoma SKOV3 (setting [6]). In addition, the “aqueous stability (LC-MS)” value in data set [3] was “not stable under these conditions and was rapidly converted to a variety of products”.

As for `COc1ccc(/C=C/C(=O)Nc2ccc3[nH]c(C(=O)N4CC(CCl)c5c4cc(O)c4oc(C)nc54)cc3c2)cc1` (stereo not shown) [Compound 63, (E)-N-(2-(8-(Chloromethyl)-4-hydroxy-2-methyl-7,8-dihydro-6H-oxazolo[4,5-e]indole-6-carbonyl)-1H-indol-5-yl)-3-(4-methoxyphenyl)acrylamide], the IC50 with cervical carcinoma SiHa (read-out: IC50 SiHa Average) came to 0.69 nM; in the data set on ovarian carcinoma SKOV3 (setting [6]), 0.61 nM.

`COc1cc2cc(C(=O)N3CC(CCl)c4c3cc(OCc3ccccc3)c3oc(C)nc43)[nH]c2c(OC)c1OC` (stereo not shown) gave a melting point of 225 to 227 °C.

`COc1cc2cc(C(=O)N3C[C@@H](CCl)c4c3cc(O)c3oc(C)nc43)[nH]c2c(OC)c1OC` [Compound 82, (S)-(8-(Chloromethyl)-4-hydroxy-2-methyl-7,8-dihydro-6H-oxazolo[4,5-e]indol-6-yl)(5,6,7-trimethoxy-1H-indol-2-yl)methanone]: the “differential cytotoxic potency between enantiomers 82 and 83” value is 93 fold in the data set on cervical carcinoma SiHa and 110 fold in the data set on ovarian carcinoma SKOV3. For the same compound, the values for the IC50 with cervical carcinoma SiHa (read-out: IC50 SiHa Average) and in the data set on ovarian carcinoma SKOV3 (setting [6]) were 0.15 nM and 0.3 nM, respectively.

On to `COc1cc2cc(C(=O)N3C[C@H](CCl)c4c3cc(O)c3oc(C)nc43)[nH]c2c(OC)c1OC` [Compound 83, (R)-(8-(chloromethyl)-4-hydroxy-2-methyl-7,8-dihydro-6H-oxazolo[4,5-e]indol-6-yl)(5,6,7-trimethoxy-1H-indol-2-yl)methanone], for which the results for the “differential cytotoxic potency between enantiomers 82 and 83” value with cervical carcinoma SiHa and in the data set with ovarian carcinoma SKOV3 were 93 fold and 110 fold, respectively. Also, the IC50 in the data set with cervical carcinoma SiHa (read-out: IC50 SiHa Average) is 14 nM; in the data set with ovarian carcinoma SKOV3 (setting [6]) it was 33 nM.

Take `CC(=O)Nc1cnc2[nH]c(C(=O)N3CC(CCl)c4c3cc(O)c3oc(C)nc43)cc2c1` (stereo not shown) [Compound 70, N-(2-(8-(Chloromethyl)-4-hydroxy-2-methyl-7,8-dihydro-6H-oxazolo[4,5-e]indole-6-carbonyl)-1H-pyrrolo[2,3-b]pyridin-5-yl)acetamide]: the IC50 with cervical carcinoma SiHa (read-out: IC50 SiHa Average) and with ovarian carcinoma SKOV3 (setting [6]) was above 20 nM in each case.

With `COc1cc2cc(C(=O)N3CC(CCl)c4c3cc(O)c3ccccc43)[nH]c2c(OC)c1OC` (stereo not shown) [Seco-CBI-TMI, reference compound], the IC50 with cervical carcinoma SiHa (120 h, read-out: IC50 SiHa) is 0.23 nM; in the data set on cervical carcinoma SiHa (read-out: IC50 SiHa Average) it was 0.16 nM; with ovarian carcinoma SKOV3 (setting [5]) it was 0.58 nM; in the data set with ovarian carcinoma SKOV3 (setting [6]), 0.27 nM. For the same compound, in data set [3], the “aqueous stability (LC-MS)” value is given as “clean conversion to the cyclopropyl form (CBI-TMI), which was stable under these conditions; also recorded: prolonged stability”.

The compound `Cc1nc2c3c(cc(O)c2o1)N(C(=O)OC(C)(C)C)CC3CCl` (stereo not shown) gave a melting point of 234 to 238 °C.

For the compound `CC(=O)Nc1ccc2nc(C(=O)N3CC(CCl)c4c3cc(O)c3oc(C)nc43)cn2c1` (stereo not shown) [Compound 74, N-(2-(8-(Chloromethyl)-4-hydroxy-2-methyl-7,8-dihydro-6H-oxazolo[4,5-e]indole-6-carbonyl)imidazo[1,2-a]pyridin-6-yl)acetamide], in data set [1], the “LogP ChemDraw Δ” value was 1.48. The “LogP ACD Δ” value in data set [2] was 1.66. For the same compound, the figures for the IC50 in the data set with cervical carcinoma SiHa (read-out: IC50 SiHa Average) and with ovarian carcinoma SKOV3 (setting [6]) were 13 nM and 16.4 nM, respectively.

Regarding `COCCOc1ccc2[nH]c(C(=O)N3CC(CCl)c4c3cc(O)c3oc(C)nc43)cc2c1` (stereo not shown) [Compound 66, (8-(Chloromethyl)-4-hydroxy-2-methyl-7,8-dihydro-6H-oxazolo[4,5-e]indol-6-yl)(5-(2-methoxyethoxy)-1H-indol-2-yl)methanone], in data set [1], the “LogP ChemDraw Δ” value is given as 1.48. Further, in data set [2], the “LogP ACD Δ” value was 1.67. The IC50 in the data set with cervical carcinoma SiHa (read-out: IC50 SiHa Average) was determined as 0.2 nM; with ovarian carcinoma SKOV3 (setting [6]), 0.17 nM.

`Cc1nc2c3c(cc(OCc4ccccc4)c2o1)N(C(=O)OC(C)(C)C)CC3CCl` (stereo not shown) registered a melting point of 142 to 143 °C.

As for `COc1ccc(/C=C/C(=O)N2CC(CCl)c3c2cc(O)c2oc(C)nc32)cc1O` (stereo not shown) [Compound 59, (E)-1-(8-(Chloromethyl)-4-hydroxy-2-methyl-7,8-dihydro-6H-oxazolo[4,5-e]indol-6-yl)-3-(3-hydroxy-4-methoxyphenyl) prop-2-en-1-one], the “LogP ChemDraw Δ” value in data set [1] is recorded as 1.48. Besides, the “LogP ACD Δ” value in data set [2] was 1.61. For the same compound, the IC50 in the data set on cervical carcinoma SiHa (read-out: IC50 SiHa Average) was found to be 0.62 nM; with ovarian carcinoma SKOV3 (setting [6]), 0.5 nM.

With `COC(=O)c1nc2c(O)cc3c(c2o1)C(CCl)CN3C(=O)c1cc2cc(OC)c(OC)c(OC)c2[nH]1` (stereo not shown) [seco-COI-TMI], the “cytotoxicity relative to reference compounds / CBI analogues” value in data set [4] is recorded as “several hundred fold less cytotoxic”.

By IC50 is commonly meant the midpoint of a concentration-inhibition curve. A word on the melting point: it is the temperature, or range, at which the solid turns liquid.
